Reference: patent publication US8410112B2, “Compounds useful as inhibitors of ATR kinase” (Vertex Pharmaceuticals Incorporated, priority 2008, dated 2013)
Values belong to the molecule of their own block, whether it stands above or below them.

Target: T1, full-length ATR (Homo sapiens, UniProt Q13535)
T1 construct: in the presence of 5 nM full-length ATR
Experiment: ATR Inhibition Assay (radioactive-phosphate incorporation)
Assay type: biochemical
Conditions: Ki(app); 5 nM full-length ATR, 10 μM ATP, 800 μM target peptide, 25° C.
Method in brief: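 Buffer was 50 mM Tris/HCl pH 7.5, 10 mM MgCl2, 1 mM DTT, with 5 nM enzyme, 10 μM [γ-33P]ATP and 800 μM target peptide at 25 °C. Compound was pre-incubated 10 min before ATP start, and the reaction was stopped after 24 h. Phosphocellulose filter capture; Ki(app) came from non-linear regression of background-corrected initial rates.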

T1 sequence (Q13535 whole entry): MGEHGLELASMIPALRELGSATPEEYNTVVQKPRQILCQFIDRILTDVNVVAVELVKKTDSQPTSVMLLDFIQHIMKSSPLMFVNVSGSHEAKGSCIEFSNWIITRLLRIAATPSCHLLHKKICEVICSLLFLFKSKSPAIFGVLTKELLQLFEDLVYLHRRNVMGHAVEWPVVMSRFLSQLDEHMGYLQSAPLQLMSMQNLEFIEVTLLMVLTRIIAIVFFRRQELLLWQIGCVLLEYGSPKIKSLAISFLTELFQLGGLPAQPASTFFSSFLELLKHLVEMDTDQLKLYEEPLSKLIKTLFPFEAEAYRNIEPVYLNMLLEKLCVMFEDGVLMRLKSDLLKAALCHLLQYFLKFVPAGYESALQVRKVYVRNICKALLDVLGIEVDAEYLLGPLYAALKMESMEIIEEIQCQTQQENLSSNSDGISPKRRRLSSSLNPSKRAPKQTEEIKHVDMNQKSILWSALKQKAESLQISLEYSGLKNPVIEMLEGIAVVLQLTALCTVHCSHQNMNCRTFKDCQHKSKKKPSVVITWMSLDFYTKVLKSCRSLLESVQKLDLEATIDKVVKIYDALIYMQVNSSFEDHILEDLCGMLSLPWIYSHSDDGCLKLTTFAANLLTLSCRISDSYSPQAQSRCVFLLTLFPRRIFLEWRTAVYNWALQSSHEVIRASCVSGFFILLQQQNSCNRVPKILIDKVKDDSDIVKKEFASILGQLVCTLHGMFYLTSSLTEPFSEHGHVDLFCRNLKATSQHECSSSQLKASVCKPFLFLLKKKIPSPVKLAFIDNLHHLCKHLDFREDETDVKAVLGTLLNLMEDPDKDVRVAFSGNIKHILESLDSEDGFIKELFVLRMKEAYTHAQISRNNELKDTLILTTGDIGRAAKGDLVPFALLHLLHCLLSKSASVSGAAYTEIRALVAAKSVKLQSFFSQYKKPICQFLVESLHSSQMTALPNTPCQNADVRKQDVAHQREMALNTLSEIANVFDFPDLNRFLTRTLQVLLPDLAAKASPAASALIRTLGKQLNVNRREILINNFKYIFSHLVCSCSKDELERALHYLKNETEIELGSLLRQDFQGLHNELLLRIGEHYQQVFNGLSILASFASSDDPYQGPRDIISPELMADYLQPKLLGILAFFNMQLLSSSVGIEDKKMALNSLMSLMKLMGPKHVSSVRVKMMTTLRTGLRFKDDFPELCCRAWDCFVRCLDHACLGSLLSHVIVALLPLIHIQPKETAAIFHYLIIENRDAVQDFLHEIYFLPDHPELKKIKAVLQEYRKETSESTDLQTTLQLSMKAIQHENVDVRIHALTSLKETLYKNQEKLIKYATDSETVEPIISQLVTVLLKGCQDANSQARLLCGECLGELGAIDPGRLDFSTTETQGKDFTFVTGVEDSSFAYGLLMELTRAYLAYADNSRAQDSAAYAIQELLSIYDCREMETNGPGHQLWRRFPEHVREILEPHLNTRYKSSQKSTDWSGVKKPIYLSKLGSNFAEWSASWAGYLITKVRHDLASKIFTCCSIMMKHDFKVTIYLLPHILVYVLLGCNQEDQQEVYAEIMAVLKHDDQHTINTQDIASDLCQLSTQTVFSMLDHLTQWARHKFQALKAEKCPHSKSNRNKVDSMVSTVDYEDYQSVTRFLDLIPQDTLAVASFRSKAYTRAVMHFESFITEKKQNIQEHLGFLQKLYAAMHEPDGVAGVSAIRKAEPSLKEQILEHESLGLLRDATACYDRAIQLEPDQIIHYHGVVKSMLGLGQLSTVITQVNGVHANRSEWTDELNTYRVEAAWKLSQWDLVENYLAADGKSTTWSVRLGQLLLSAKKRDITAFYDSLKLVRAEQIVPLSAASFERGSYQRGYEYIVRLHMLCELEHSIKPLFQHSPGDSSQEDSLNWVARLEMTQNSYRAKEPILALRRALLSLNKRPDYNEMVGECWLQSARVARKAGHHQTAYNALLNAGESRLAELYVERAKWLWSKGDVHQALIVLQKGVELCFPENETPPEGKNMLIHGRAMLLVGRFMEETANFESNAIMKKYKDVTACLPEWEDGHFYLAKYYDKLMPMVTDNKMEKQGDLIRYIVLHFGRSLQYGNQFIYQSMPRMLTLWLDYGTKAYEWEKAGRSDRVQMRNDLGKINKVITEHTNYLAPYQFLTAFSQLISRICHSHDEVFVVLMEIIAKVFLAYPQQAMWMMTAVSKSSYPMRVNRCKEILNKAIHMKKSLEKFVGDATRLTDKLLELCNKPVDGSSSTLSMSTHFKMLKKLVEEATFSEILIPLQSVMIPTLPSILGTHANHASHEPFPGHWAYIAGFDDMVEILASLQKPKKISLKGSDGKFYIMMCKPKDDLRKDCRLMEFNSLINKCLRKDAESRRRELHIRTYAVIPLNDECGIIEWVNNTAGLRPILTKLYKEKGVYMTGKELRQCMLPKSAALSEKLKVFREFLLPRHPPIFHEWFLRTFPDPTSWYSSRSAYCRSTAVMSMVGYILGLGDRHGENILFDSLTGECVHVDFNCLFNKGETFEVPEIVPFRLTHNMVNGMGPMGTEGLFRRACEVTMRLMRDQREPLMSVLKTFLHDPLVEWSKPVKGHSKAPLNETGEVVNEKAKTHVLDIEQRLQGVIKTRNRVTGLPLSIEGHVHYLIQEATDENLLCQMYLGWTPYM

SMILES: Nc1ncc(N2CCN(Cc3ccccc3)CC2)nc1-c1nnc(-c2ccccc2)o1 [Compound I-300, 5-(4-benzylpiperazin-1-yl)-3-(5-phenyl-1,3,4-oxadiazol-2-yl)pyrazin-2-amine]
Ki: 1000 to 10000 nM

SMILES: CCC(=O)N1CC=C(c2cnc(N)c(-c3nnc(-c4ccccc4)o3)n2)CC1 [Compound I-301, 1-[4-[5-amino-6-(5-phenyl-1,3,4-oxadiazol-2-yl)pyrazin-2-yl]-3,6-dihydro-2H-pyridin-1-yl]propan-1-one]
Ki: < 100 nM

SMILES: CCS(=O)(=O)NC1CN(c2cnc(N)c(-c3nnc(-c4ccccc4)o3)n2)C1 [Compound I-302, N-[1-[5-amino-6-(5-phenyl-1,3,4-oxadiazol-2-yl)pyrazin-2-yl]azetidin-3-yl]ethanesulfonamide]
Ki: 100 to 1000 nM

SMILES: Nc1ncc(N2CCN(CC(=O)N3CCOCC3)CC2)nc1-c1nnc(-c2ccccc2)o1 [Compound I-303, 2-[4-[5-amino-6-(5-phenyl-1,3,4-oxadiazol-2-yl)pyrazin-2-yl]piperazin-1-yl]-1-morpholino-ethanone]
Ki: 100 to 1000 nM

SMILES: Nc1ncc(N2Cc3ccccc3C2=O)nc1-c1nc2ccccc2[nH]1 [Compound I-304, 2-[5-amino-6-(1H-benzimidazol-2-yl)pyrazin-2-yl]isoindolin-1-one]
Ki: 100 to 1000 nM

SMILES: CCS(=O)(=O)N1CC=C(c2cnc(N)c(-c3noc(-c4ccccc4)n3)n2)CC1 [Compound I-307, 5-(1-ethylsulfonyl-3,6-dihydro-2H-pyridin-4-yl)-3-(5-phenyl-1,2,4-oxadiazol-3-yl)pyrazin-2-amine]
Ki: 100 to 1000 nM

SMILES: CCS(=O)(=O)N1CCN(c2cnc(N)c(-c3nc4ccccc4n3-c3ccccc3)n2)CC1 [Compound I-308, 5-(4-ethylsulfonylpiperazin-1-yl)-3-(1-phenylbenzimidazol-2-yl)pyrazin-2-amine]
Ki: 100 to 1000 nM

SMILES: CCC(=O)N1CC=C(c2cnc(N)c(-c3nc4ccccc4[nH]3)n2)CC1 [Compound I-309, 1-[4-[5-amino-6-(1H-benzimidazol-2-yl)pyrazin-2-yl]-3,6-dihydro-2H-pyridin-1-yl]propan-1-one]
Ki: < 100 nM

SMILES: Nc1ncc(-n2ccccc2=O)nc1-c1nc2ccccc2[nH]1 [Compound I-310, 1-(5-amino-6-(1H-benzo[d]imidazol-2-yl)pyrazin-2-yl)pyridin-2(1H)-one]
Ki: < 100 nM

SMILES: Nc1ncc(-n2ccc(=O)cc2)nc1-c1nc2ccccc2[nH]1 [Compound I-311, 1-[5-amino-6-(1H-benzimidazol-2-yl)pyrazin-2-yl]pyridin-4-one]
Ki: < 100 nM

SMILES: NCCS(=O)(=O)N1CC=C(c2cnc(N)c(-c3nc4ccccc4[nH]3)n2)CC1 [Compound I-313, 5-(1-(2-Aminoethylsulfonyl)-1,2,3,6-tetrahydropyridin-4-yl)-3-(1H-benzo[d]imidazol-2-yl)pyrazin-2-amine]
Ki: 100 to 1000 nM

SMILES: CCNC1CC=C(c2cnc(N)c(-c3nnc(-c4ccccc4)o3)n2)CC1 (centres unmarked) [Compound I-314, 5-(4-(Ethylamino)cyclohex-1-enyl)-3-(5-phenyl-1,3,4-oxadiazol-2-yl)pyrazin-2-amine]
Ki: 100 to 1000 nM

SMILES: Nc1ncc(N2C[C@@H]3CCC(=O)[C@@H]3C2)nc1-c1nnc(-c2ccccc2)o1 [Compound I-319, (3aS,6aR)-2-(5-Amino-6-(5-phenyl-1,3,4-oxadiazol-2-yl)pyrazin-2-yl)hexahydrocyclopenta[c]pyrrol-4(5H)-one]
Ki: 100 to 1000 nM

SMILES: Nc1ncc(C2=CCN(C(=O)CCC(=O)O)CC2)nc1-c1nc2ccccc2[nH]1 [Compound I-324, 4-(4-(5-Amino-6-(1H-benzo[d]imidazol-2-yl)pyrazin-2-yl)-5,6-dihydropyridin-1(2H)-yl)-4-oxobutanoic acid]
Ki: 100 to 1000 nM

SMILES: NCCCS(=O)(=O)N1CC=C(c2cnc(N)c(-c3nc4ccccc4[nH]3)n2)CC1 [Compound I-331, 5-(1-(3-aminopropylsulfonyl)-1,2,3,6-tetrahydropyridin-4-yl)-3-(1H-benzo[d]imidazol-2-yl)pyrazin-2-amine]
Ki: < 100 nM

Continued, values first:

Ki: 100 to 1000 nM
SMILES: CCS(=O)(=O)N1CCN(c2cnc(N)c(-c3nnc(-c4ccccc4F)o3)n2)CC1 [Compound I-299, 5-(4-ethylsulfonylpiperazin-1-yl)-3-[5-(2-fluorophenyl)-1,3,4-oxadiazol-2-yl]pyrazin-2-amine]

Ki: 100 to 1000 nM
SMILES: CCS(=O)(=O)N1CC2CN(c3cnc(N)c(-c4nnc(-c5ccccc5)o4)n3)CC2C1 (centres unmarked) [Compound I-305, 5-(2-ethylsulfonyl-1,3,3a,4,6,6a-hexahydropyrrolo[3,4-c]pyrrol-5-yl)-3-(5-phenyl-1,3,4-oxadiazol-2-yl)pyrazin-2-amine]

Ki: 1000 to 10000 nM
SMILES: Nc1ncc(N2CCN(CCO)CC2)nc1-c1nnc(-c2ccccc2)o1 [Compound I-306, 2-[4-[5-amino-6-(5-phenyl-1,3,4-oxadiazol-2-yl)pyrazin-2-yl]piperazin-1-yl]ethanol]

Ki: 100 to 1000 nM
SMILES: CCS(=O)(=O)N1CCN(c2cnc(N)c(-c3nnc(-c4cccs4)o3)n2)CC1 [Compound I-312, 5-(4-ethylsulfonylpiperazin-1-yl)-3-[5-(2-thienyl)-1,3,4-oxadiazol-2-yl]pyrazin-2-amine]

Ki: 100 to 1000 nM
SMILES: CCC(=O)N1CCN(c2cnc(N)c(-c3nnc(-c4ccc(CNC)cc4)o3)n2)C[C@H]1C [Compound I-315, 1-[(2R)-4-[5-Amino-6-[5-[4-(methylaminomethyl)phenyl]-1,3,4-oxadiazol-2-yl]pyrazin-2-yl]-2-methyl-piperazin-1-yl]propan-1-one]

Ki: < 100 nM
SMILES: CNCc1ccc(-c2nnc(-c3nc(N4CCC(c5ccccc5)C4)cnc3N)o2)cc1 (centres unmarked) [Compound I-316, 3-[5-[4-(Methylaminomethyl)phenyl]-1,3,4-oxadiazol-2-yl]-5-(3-phenylpyrrolidin-1-yl)pyrazin-2-amine]

Ki: < 100 nM
SMILES: CNCc1ccc(-c2nnc(-c3nc(N4CC[C@H](CNC(C)=O)C4)cnc3N)o2)cc1 [Compound I-317, N-[[(3R)-1-[5-Amino-6-[5-[4-(methylaminomethyl)phenyl]-1,3,4-oxadiazol-2-yl]pyrazin-2-yl]pyrrolidin-3-yl]methyl]acetamide]

Ki: < 100 nM
SMILES: CNCc1ccc(-c2nnc(-c3nc(N4C[C@H]5CCC(OS(C)(=O)=O)[C@H]5C4)cnc3N)o2)cc1 (some centres unmarked) [Compound I-320]

Ki: 1000 to 10000 nM
SMILES: CNCc1ccc(-c2nnc(-c3nc(N4Cc5ccccc5C4)cnc3N)o2)cc1 [Compound I-321, 5-Isoindolin-2-yl-3-[5-[4-(methylaminomethyl)phenyl]-1,3,4-oxadiazol-2-yl]pyrazin-2-amine]

Ki: 100 to 1000 nM
SMILES: CCN1CCN(c2cnc(N)c(-c3nnc(-c4ccc(CNC)cc4)o3)n2)CC1 [Compound I-322, 5-(4-Ethylpiperazin-1-yl)-3-[5-[4-(methylaminomethyl)phenyl]-1,3,4-oxadiazol-2-yl]pyrazin-2-amine]

Ki: < 100 nM
SMILES: CNCc1ccc(-c2nnc(-c3nc(N4CC[C@@H](CNC(C)=O)C4)cnc3N)o2)cc1 [Compound I-323, N-[[(3S)-1-[5-Amino-6-[5-[4-(methylaminomethyl)phenyl]-1,3,4-oxadiazol-2-yl]pyrazin-2-yl]pyrrolidin-3-yl]methyl]acetamide]

Ki: < 100 nM
SMILES: CCS(=O)(=O)N1CCN(c2cnc(N)c(-c3nnc(-c4ccc(CNC)cc4)o3)n2)CC1 [Compound I-325, 5-(4-Ethylsulfonylpiperazin-1-yl)-3-[5-[4-(methylaminomethyl)phenyl]-1,3,4-oxadiazol-2-yl]pyrazin-2-amine]

Ki: < 100 nM
SMILES: CCC(=O)N1CCN(c2cnc(N)c(-c3nnc(-c4ccc(CNC)cc4)o3)n2)C[C@@H]1C(C)C [Compound I-326, 1-[(2S)-4-[5-Amino-6-[5-[4-(methylaminomethyl)phenyl]-1,3,4-oxadiazol-2-yl]pyrazin-2-yl]-2-isopropyl-piperazin-1-yl]propan-1-one]

Ki: < 100 nM
SMILES: CCC(=O)N1CCN(c2cnc(N)c(-c3nnc(-c4ccc(CNC)cc4)o3)n2)CC1 [Compound I-327, 1-[4-[5-Amino-6-[5-[4-(methylaminomethyl)phenyl]-1,3,4-oxadiazol-2-yl]pyrazin-2-yl]piperazin-1-yl]propan-1-one]

Ki: 100 to 1000 nM
SMILES: CCS(=O)(=O)N1CCN(c2cnc(N)c(-c3nnc(-c4ccc(CNC)cc4)o3)n2)CC1(C)C [Compound I-328, 5-(4-Ethylsulfonyl-3,3-dimethyl-piperazin-1-yl)-3-[5-[4-(methylaminomethyl)phenyl]-1,3,4-oxadiazol-2-yl]pyrazin-2-amine]

Ki: 1000 to 10000 nM
SMILES: CCC(=O)N1CCN(c2cnc(N)c(-c3nnc(-c4ccc(CNC)cc4)o3)n2)CC1(C)C [Compound I-329, 1-[4-[5-Amino-6-[5-[4-(methylaminomethyl)phenyl]-1,3,4-oxadiazol-2-yl]pyrazin-2-yl]-2,2-dimethyl-piperazin-1-yl]propan-1-one]

Ki: 1000 to 10000 nM
SMILES: CCS(=O)(=O)N1CCC2(CCN(c3cnc(N)c(-c4nnc(-c5ccc(CNC)cc5)o4)n3)C2)C1 (centres unmarked) [Compound I-330, 5-(3-Ethylsulfonyl-3,7-diazaspiro[4.4]nonan-7-yl)-3-[5-[4-(methylaminomethyl)phenyl]-1,3,4-oxadiazol-2-yl]pyrazin-2-amine]

Ki: 1000 to 10000 nM
SMILES: CCS(=O)(=O)N1CC2CN(c3cnc(N)c(-c4nnc(-c5ccc(CNC)cc5)o4)n3)CC2C1 (centres unmarked) [Compound I-332, 5-(2-Ethylsulfonyl-1,3,3a,4,6,6a-hexahydropyrrolo[3,4-c]pyrrol-5-yl)-3-[5-[4-(methylaminomethyl)phenyl]-1,3,4-oxadiazol-2-yl]pyrazin-2-amine]

Ki: 100 to 1000 nM
SMILES: CCC(=O)N1CCN(c2cnc(N)c(-c3nnc(-c4ccc(CNC)cc4)o3)n2)C[C@H]1C(C)C [Compound I-333, 1-[(2R)-4-[5-Amino-6-[5-[4-(methylaminomethyl)phenyl]-1,3,4-oxadiazol-2-yl]pyrazin-2-yl]-2-isopropyl-piperazin-1-yl]propan-1-one]

Ki: 100 to 1000 nM
SMILES: CCC(=O)N1C[C@@H]2C[C@@H]1CN2c1cnc(N)c(-c2nnc(-c3ccc(CNC)cc3)o2)n1 [Compound I-334, 1-[(1S,4R)-2-[5-Amino-6-[5-[4-(methylaminomethyl)phenyl]-1,3,4-oxadiazol-2-yl]pyrazin-2-yl]-2,5-diazabicyclo[2.2.1]heptan-5-yl]propan-1-one]
